Target: T1, Recombinant human ASK1 kinase (Homo sapiens, UniProt Q99683)
T1 construct: purchased Invitrogen Inc
T1 sequence (Q99683 1-1374): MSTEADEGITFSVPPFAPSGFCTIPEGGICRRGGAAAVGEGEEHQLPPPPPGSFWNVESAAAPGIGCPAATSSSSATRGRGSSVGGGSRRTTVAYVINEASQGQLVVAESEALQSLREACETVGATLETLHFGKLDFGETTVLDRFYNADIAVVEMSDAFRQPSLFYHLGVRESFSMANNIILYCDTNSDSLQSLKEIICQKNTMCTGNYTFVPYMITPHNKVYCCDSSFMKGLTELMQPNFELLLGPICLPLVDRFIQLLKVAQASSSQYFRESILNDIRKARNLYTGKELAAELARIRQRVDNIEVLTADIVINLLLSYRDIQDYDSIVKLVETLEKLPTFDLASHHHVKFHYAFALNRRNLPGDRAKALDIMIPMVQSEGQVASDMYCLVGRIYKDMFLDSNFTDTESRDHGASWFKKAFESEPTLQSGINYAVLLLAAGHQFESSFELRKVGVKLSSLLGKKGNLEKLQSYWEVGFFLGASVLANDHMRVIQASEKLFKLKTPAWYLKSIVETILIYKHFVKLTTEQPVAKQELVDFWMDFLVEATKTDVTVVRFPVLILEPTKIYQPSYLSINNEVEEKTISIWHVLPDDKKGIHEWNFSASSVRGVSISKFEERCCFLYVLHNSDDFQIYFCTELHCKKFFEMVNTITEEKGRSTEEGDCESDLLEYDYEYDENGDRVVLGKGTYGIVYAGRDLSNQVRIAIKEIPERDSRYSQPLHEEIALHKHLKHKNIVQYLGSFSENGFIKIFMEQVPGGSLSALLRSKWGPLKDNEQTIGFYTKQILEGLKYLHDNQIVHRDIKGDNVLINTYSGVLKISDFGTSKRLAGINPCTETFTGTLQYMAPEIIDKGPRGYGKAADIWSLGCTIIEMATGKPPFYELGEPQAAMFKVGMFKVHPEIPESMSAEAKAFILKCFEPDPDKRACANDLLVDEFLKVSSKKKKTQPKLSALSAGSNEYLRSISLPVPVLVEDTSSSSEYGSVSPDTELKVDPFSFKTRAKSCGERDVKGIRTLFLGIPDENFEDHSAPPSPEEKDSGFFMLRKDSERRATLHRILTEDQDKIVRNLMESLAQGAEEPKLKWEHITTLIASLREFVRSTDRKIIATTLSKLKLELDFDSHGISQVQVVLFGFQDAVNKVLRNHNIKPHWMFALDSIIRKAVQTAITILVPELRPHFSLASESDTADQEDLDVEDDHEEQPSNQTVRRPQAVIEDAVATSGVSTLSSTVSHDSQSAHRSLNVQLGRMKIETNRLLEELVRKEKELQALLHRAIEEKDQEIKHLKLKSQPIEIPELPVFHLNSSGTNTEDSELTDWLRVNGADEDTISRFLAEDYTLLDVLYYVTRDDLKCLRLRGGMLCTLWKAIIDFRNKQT
Experiment: ASK1 kinase HTRF assay (HTRF KinEASE-STK, phosphorylation of biotinylated peptide substrate)
Assay type: biochemical
Settings: not given
In short: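 HTRF KinEASE-STK read-out of biotinylated peptide phosphorylation. Compound incubated with 3 nM ASK1 and 1 uM STK-substrate-biotin in kinase buffer containing 5 mM MgCl2 and 1 mM DTT.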

SMILES	EC50
C[C@H](CO)n1cnnc1-c1cccc(NC(=O)Nc2cc(C(=O)N3CCCC3)ccn2)n1 [Compound I-146]	< 50 nM
CC(C)n1cnnc1-c1cccc(NC(=O)Nc2cc(C(=O)N3CCNCC3)ccn2)n1 [Compound I-139]	< 50 nM
C[C@H](CO)n1cnnc1-c1cccc(NC(=O)Nc2ccc3ccccc3n2)n1 [Compound I-069]	< 50 nM

Same assay, conditions: 3 nM ASK1 kinase, 1 uM STK-substrate-biotin, HTRF detection; read-out: EC50

SMILES	EC50
C[C@H](CO)n1cnnc1-c1cccc(NC(=O)Nc2cc(N3CCN(S(C)(=O)=O)CC3)ccn2)n1 [Compound I-103]	< 50 nM
CC(C)n1cnnc1-c1cccc(NC(=O)Nc2cc(C(=O)Nc3ccccc3F)ccn2)n1 [Compound I-156]	< 50 nM
CC(C)n1cnnc1-c1cccc(N2CCN(c3ccc(C(=O)N4CCOCC4)cn3)C2=O)n1 [Compound V-25]	< 50 nM
C[C@H](CO)n1cnnc1-c1cccc(NC(=O)Nc2cc(C3CCOCC3)ccn2)n1 [Compound I-092]	< 50 nM
C[C@H](CO)n1cnnc1-c1cccc(NC(=O)Nc2cc(C(=O)N3CCCCCC3)ccn2)n1 [Compound I-148]	< 50 nM
CC(C)n1cnnc1-c1cccc(NC(=O)Nc2cc(S(=O)(=O)N3CCOCC3)ccn2)n1 [Compound I-207]	< 50 nM
CC(C)n1cnnc1-c1cccc(NC(=S)Nc2ccccn2)n1 [VI-01, 1-(6-(4-Isopropyl-4H-1,2,4-triazol-3-yl)pyridin-2-yl)-3-(pyridin-2-yl)thiourea]	50 to 500 nM
CC(C)n1cnnc1-c1cccc(NC(=O)Nc2ncccc2-c2ccccc2)n1 [Compound I-075]	50 to 500 nM
CC(C)n1cnnc1-c1cccc(N2CCN(c3ccc(N4CCNCC4)cn3)C2=O)n1 [Compound V-01, 1-(6-(4-Isopropyl-4H-1,2,4-triazol-3-yl)pyridin-2-yl)-3-(5-(piperazin-1-yl)pyridin-2-yl)imidazolidin-2-one]	< 50 nM

Reference: patent US11427556B2, “Urea derivatives as inhibitors of ASK1” (Hepagene Therapeutics (HK) Limited, priority 2017, dated 2022)
